For one data set, the system named is Cavia porcellus. The data set is described as follows: Hypoglycemic activity in sc dosed guinea pig assessed as glucose lowering effect. The format is functional.
Data set [1] can be described thus: Oral bioavailability in rat. The data set is classed as ADME, organism-based. As to conditions: in vivo.
Data set [2] relates to Plasmodium falciparum. The data set is described as follows: Antimalarial activity against Plasmodium falciparum CH12. The data set is classed as functional, organism-based.
A short description of data set [3]: Toxicity in po dosed mouse. As to conditions: in vivo. The format is organism-based.
Data set [4] can be described thus: Toxicity in sc dosed mouse. Conditions: in vivo. The data set is classed as organism-based.
Data set [5] in a line: Half life in po dosed human. The format is ADME, organism-based. Conditions: in vivo.
For data set [6], the system named is MCF7. The data set is described as follows: Cytotoxicity against human MCF7 cells assessed as reduction in breast cancer stem cells at 5 mM after 48 hrs (reference value: 2.78%). The data set is classed as functional. On the set-up: scale not given: the % may be the effect or the level left.
The species entered for a further data set is Homo sapiens. Nature of the data set: Antidiabetic activity in human assessed as reduction in hepatic glucose output. The data set is classed as functional. On the set-up: scale not given: the % may be the effect or the level left.
The next data set deals with SW-620. The data set is described as follows: Synergistic antiproliferative activity against human SW620 cells assessed as reduction in cancer stem cells preincubated for 24 hrs followed by 5-FU addition and measured after 48 hrs (reference value: 21.30 +/- 1.40 %). On the set-up: scale not given: the % may be the effect or the level left. The data set is classed as functional.

Data set [7] deals with MCF7. Nature of the data set: Cytotoxicity against human MCF7 cells assessed as reduction in breast cancer stem cells at 1 mM after 48 hrs (reference value: 2.78%). Details: scale not given: the % may be the effect or the level left. The data set is classed as functional.
The nature of data set [8]: Toxicity in rat. Conditions: in vivo.
The subject of data set [9] is Plasmodium falciparum. The data set is described as follows: Antimalarial activity against Plasmodium falciparum GA3. The format is functional, organism-based.
Data set [10] concerns Plasmodium berghei. Nature of the data set: Potency index, ratio of cycloguanil ED50 to test compound ED50 for antimalarial activity against Plasmodium berghei infected in mouse. The format is functional.
The nature of data set [11]: Inhibition of Plasmodium knowlesi DHFR.
Data set [12] concerns Plasmodium berghei. The data set is described as follows: Potency index, ratio of chloroquine ED50 to test compound ED50 for antimalarial activity against Plasmodium berghei infected in mouse. The format is functional.
The test system of the next data set is Streptococcus pyogenes. Nature of the data set: Antibacterial activity against Streptococcus pyogenes. The data set is classed as functional.
The next data set has as its system Clostridium septicum. Nature of the data set: Antibacterial activity against Clostridium septicum. The format is functional.
Another data set deals with Streptococcus. The data set is described as follows: Antibacterial activity against Streptococcus beta-haemolyticus. The format is functional.

The values below come from ChEMBL document CHEMBL5241091, “Biguanides drugs: Past success stories and promising future for drug discovery” (Eur J Med Chem, 2021).

Structures are written as SMILES. Converted amounts (≈) assume the structure as drawn.

By bioavailability is commonly meant dose-corrected exposure relative to a reference, in per cent. Usually IC50 stands for the concentration at which inhibition is half-maximal. Broadly, the LD50 is the dose at which mortality reaches 50%. Usually half-life stands for the time needed for the level to fall by half in the phase considered. In general, EC50 refers to the concentration giving half of the maximal effect. By MIC is commonly meant the least concentration at which growth counts as inhibited.

`CCCCNC(=N)NC(=N)N` [BUFORMIN]: the MED in the data set on Cavia porcellus amounted to 20 mg.

With `CC1(C)N=C(N)N=C(N)N1OCCCOc1cc(Cl)c(Cl)cc1Cl`, the bioavailability in data set [1] is no more than 1%. For the same molecule, the IC50 with Plasmodium falciparum [2] stood at 0.05 ng/mL (≈ 0.000127 µM).

In the case of `N=C(N)/N=C(\N)N1CCOCC1` [MOROXYDINE], the LD50 was greater than 6250 mg/kg in data set [3] and 225 mg/kg in [4].

In the case of `N=C(N)NC(=N)NCCc1ccccc1` [PHENFORMIN], the MED in the data set on Cavia porcellus was 7.5 mg.

In the case of `CC(C)NC(=N)NC(=N)Nc1ccc(Cl)c(Cl)c1` [CHLORPROGUANIL], the half-life in data set [5] was 35 h.

Take `CN(C)C(=N)NC(=N)N` [METFORMIN]: the Activity in the data set with MCF7 [6] is given as 1.29%; in the data set listed under Homo sapiens, “>=75%”; in the data set with SW-620, 15.13%; with MCF7 [7], 2.2%. Moreover, the MED in the data set on Cavia porcellus was 75 mg. Further, the figures for the LD50 in [3], in data set [8] and in [4] were 1450 mg/kg, 1000 mg/kg and 2200 mg/kg, respectively.

In the case of `CC(C)/N=C(N)/N=C(\N)NOCCCOc1cc(Cl)c(Cl)cc1Cl`, the IC50 in the data set on Plasmodium falciparum [9] came out at 0.532 µg/mL (≈ 1.34 µM); in the data set on Plasmodium falciparum [2], 326 ng/mL (≈ 0.822 µM).

Consider `CC1(C)N=C(N)N=C(N)N1OCc1ccc(Cl)c(Cl)c1` [CLOCIGUANIL], for which the “Ratio ED50” value in the data set on Plasmodium berghei [10] was determined as 30; with Plasmodium berghei [12], 10. Also, it took 1 pM to reach a half-maximal effect in [11] (EC50).

In the case of `N=C(NC(=N)N1CCN(C(=N)NC(=N)Nc2ccc(Cl)cc2)CC1)Nc1ccc(Cl)cc1` [PICLOXYDINE], the figures for the MIC against Streptococcus pyogenes, in the data set with Clostridium septicum and against Streptococcus were 760 µg/mL (≈ 1600 µM), 300 µg/mL (≈ 631 µM) and 760 µg/mL (≈ 1600 µM), respectively.
